Holding throughout (type): in vivo, ICR strain male mice (Crj:CD-1)
In assay [1] the test system is leukocytes. In words: Test for evaluating an efficacy on drug-induced leukopenia (cyclophosphamide). The note with it: for number of leukocytes, percentage based on Day 0 / number of leukocytes (mean ± S.D): cyclophosphamide 200 mg/kg i.p. Day 0. How it is done: The effect of sulphostin [3(S)-amino-1-((R)-amino(sulfoamino)phosphinyl)-2-piperidone] on drug-induced leukopenia was evaluated according to the method of Okabe et al. (Yakuri to Chiryo (Japanese Pharmacology and Therapeutics) Vol. 19, No. 6, p. 55, 1991).
ICR strain male mice (Crj:CD-1) aged 8 weeks were used in the test. The animals were divided into three groups of 3 or 4 animals per group.
On Day 0, cyclophosphamide was intraperitoneally administered once to all the groups in a dose of 200 mg/kg. From the next day, the following were intravenously and repeatedly administered to the groups, respectively, for 5 days (Day 1 to 5); the first group (a control group): physiological saline, the second group: sulphostin (30 mg/kg/day), and the third group: sulphostin (100 mg/kg/day). Blood was drawn from the posterior-eyehole venous plexus on Day 0 (before the administration of cyclophosphamide) and Days 2, 4, 6 and 8 (the blood drawing, however, was carried out only on Days 0, 4 and 6 in the case of the second group), and the number of leukocytes was periodically measured to investigate the leukocyte-increasing effect of sulphostin relative to a decrease of leukocytes caused by cyclophosphamide.
The data are expressed as the mean±S.D and percentages based on the number of leukocytes on Day 0. ND refers to no data.

The test system of assay [2] is leukocytes. Description: Test for investigating the increase of leukocytes in normal mice. To be noted: blood on day after last administration. How it is done:
ICR strain male mice (Crj:CD-1) aged 7 weeks were used in the test. The animals were divided into 5 groups of 4 animals per group. The following were intravenously and repeatedly administered to the groups, respectively, for 5 days; the first group: physiological saline as solvent, the second group: sulphostin (2 mg/kg/day), the third group: sulphostin (10 mg/kg/day), the fourth group: sulphostin (50 mg/kg/day), and the fifth group: sulphostin (250 mg/kg/day). On the day subsequent to the last day of the administration period, blood was drawn from the abdominal aorta under anesthesia and the number of leukocytes was measured.

The subject of assay [3] is G-CSF. Description: Test for investigating the increase of G-CSF concentration in normal mice (plasma, mouse G-CSF ELISA). To be noted: blood on day after completion. How it is done: ICR strain male mice (Crj:CD-1) aged 7 weeks were used in the test. The animals were divided into 4 groups of 5 animals per group. The following were intravenously and repeatedly administered to the groups, respectively, for 5 days; the first group: physiological saline as solvent, the second group: sulphostin (10 mg/kg/day), the third group: sulphostin (30 mg/kg/day), and the fourth group: sulphostin (90 mg/kg/day). On the day subsequent to completion of the administration, blood was drawn from the abdominal aorta under anesthesia. The blood obtained was centrifuged to collect plasma, and G-CSF was measured by the use of a mouse G-CSF ELISA measuring kit (R & D SYSTEMS Inc.).
(In general: An ELISA detects its analyte on a solid surface through an enzyme-linked reagent.)

Where [4] appears, read: sulphostin 10 mg/kg/day i.v. for 5 days.

Turning to `N[C@H]1CCCN([P@@](N)(=O)NS(=O)(=O)O)C1=O` [Sulphostin, 3(S)-amino-1-((R)-amino(sulfoamino)-phosphinyl)-2-piperidone], the “number of leukocytes, percentage based on Day 0” value in assay [1] (sulphostin 30 mg/kg/day i.v. Day 1 to 5, Day 0 (before cyclophosphamide)) is listed as 100%; in assay [1] (sulphostin 30 mg/kg/day i.v. Day 1 to 5, Day 4), 30%; in assay [1] (sulphostin 30 mg/kg/day i.v. Day 1 to 5, Day 6) it was 95%; in assay [1] (sulphostin 100 mg/kg/day i.v. Day 1 to 5, Day 0 (before cyclophosphamide)) it was 100%; in assay [1] (sulphostin 100 mg/kg/day i.v. Day 1 to 5, Day 2), 55%; in assay [1] (sulphostin 100 mg/kg/day i.v. Day 1 to 5, Day 4), 26%. In addition, the “number of leukocytes, percentage based on Day 0” value worked out at 126% in assay [1] (sulphostin 100 mg/kg/day i.v. Day 1 to 5, Day 6) and 668% in assay [1] (sulphostin 100 mg/kg/day i.v. Day 1 to 5, Day 8). For the same molecule, the “number of leukocytes (mean ± S.D)” value in assay [1] (sulphostin 30 mg/kg/day i.v. Day 1 to 5, Day 0 (before cyclophosphamide), n = 3) is listed as 44 ± 7.1 ×100/millimeter cube; in assay [1] (sulphostin 30 mg/kg/day i.v. Day 1 to 5, Day 4, n = 3), 13 ± 12.5 ×100/millimeter cube; in assay [1] (sulphostin 30 mg/kg/day i.v. Day 1 to 5, Day 6, n = 3) it was 42 ± 14.5 ×100/millimeter cube; in assay [1] (sulphostin 100 mg/kg/day i.v. Day 1 to 5, Day 0 (before cyclophosphamide), n = 4), 38 ± 17.2 ×100/millimeter cube; in assay [1] (sulphostin 100 mg/kg/day i.v. Day 1 to 5, Day 2, n = 4) it was 21 ± 5.1 ×100/millimeter cube; in assay [1] (sulphostin 100 mg/kg/day i.v. Day 1 to 5, Day 4, n = 4), 10 ± 6.3 ×100/millimeter cube. Also, the “number of leukocytes (mean ± S.D)” value in assay [1] (sulphostin 100 mg/kg/day i.v. Day 1 to 5, Day 6, n = 4) is 48 ± 23.8 ×100/millimeter cube; in assay [1] (sulphostin 100 mg/kg/day i.v. Day 1 to 5, Day 8, n = 4), 254 ± 75.5 ×100/millimeter cube. For the same molecule, in assay [1] (sulphostin-treated groups (30 and 100 mg/kg/day i.v.), control group requires 8 days), the “restoration of the number of leukocytes to the initial value after the administration of cyclophosphamide, time required” value is 6 days. Besides, the “number of leukocytes larger than that of the control group by factor” value in assay [2] (sulphostin 2 mg/kg/day i.v. for 5 days) was 1.4; in assay [2] (setting [4]), 1.9; in assay [2] (sulphostin 50 mg/kg/day i.v. for 5 days), 4.9; in assay [2] (sulphostin 250 mg/kg/day i.v. for 5 days), 5.9. Moreover, the “G-CSF level higher than that of the control group by factor” value stood at 1.03 in assay [3] (setting [4]), 6.1 in assay [3] (sulphostin 30 mg/kg/day i.v. for 5 days) and 7.0 in assay [3] (sulphostin 90 mg/kg/day i.v. for 5 days).
